# Like-named read-outs stand apart in the source and are kept apart here.
# Columns and labels:
# [1] = system: FtsZ in K. pneumoniae ATCC 13883 cells; assay: FtsZ visualization by fluorescence microscopy in live cells; assay type: cell-based, Klebsiella pneumoniae; conditions: 1 µg/mL for 5 minutes
# Procedure: (§1) All differential interference contrast (DIC) and fluorescence microscopy experiments were conducted using an Olympus BX50 microscope equipped with an X-cite Exacte 200 W mercury lamp, a 100× Olympus UPLSAPO oil immersion objective (1.40 aperture), as well as both Chroma ET-EGFP (FITC/Cy2) and ET mCherry, Texas Red filters. Images were captured using a QImaging Retiga R3 charge-coupled device (CCD) camera and the Ocular-Version 2.0 software package (QImaging).
# For visualizing FtsZ in Gram-negative bacteria using BOFP, E. coli ATCC 25922, K. pneumoniae ATCC 13883, P. aeruginosa ATCC 27853, and A. baumannii ATCC 19606 were grown to log-phase in CAMH broth. For each Gram-negative bacterial strain, a total of 1 mL of cell culture was centrifuged at 15,000 × g for 1 minute and washed twice with 1 mL of Tris-buffered saline (TBS) composed of 50 mM Tris-HCl (pH 7.6) and 150 mM NaCl. After the final wash, the pelleted cells were resuspended in 500 µL of TBS containing 1 µg/mL of BOFP and pentamidine isethionate (at 0.875 mg/mL for E. coli and 3.5 mg/mL for the other three strains). The resuspended cells were then incubated in the dark for 5 minutes at room temperature, centrifuged at 15,000 × g for 1 minute, washed twice with 1 mL of TBS, and subsequently resuspended in 200 µL of TBS. This final cell suspension was then prepared for microscopy as described for the Gram-positive bacterial strains. Comparative control experiments with 1 µg/mL BODIPY FL-COOH were conducted in K. pneumoniae ATCC 13883 cells as described above for BOFP.
# [2] = target: T1, FtsZ in S. aureus NRS705 cells (Staphylococcus aureus, UniProt P0A031); assay type: cell-based; conditions: 1 µg/mL for 5 minutes
# T1 construct: endogenous in cells; host or cells: S. aureus NRS705 (USA100 MRSA)
# Procedure: as §1
# (§2) For visualizing FtsZ in Gram-positive bacteria using BOFP, the bacterial cells were grown to log-phase in media suitable for each individual pathogen. Specifically, S. aureus NRS705 (MRSA) was grown in tryptic soy broth (TSB), E. faecalis ATCC 29212 and E. faecium ATCC 19434 were grown in lactobacilli MRS broth, S. agalactiae ATCC 12386 and S. pneumoniae ATCC 49619 were grown in TH broth, and S. pyogenes ATCC 19615 was grown in CAMH broth supplemented with 3% (v/v) LHB. For each Gram-positive bacterial strain, a total of 1 mL of cell culture was centrifuged at 15,000 × g for 1 minute and washed 2–3 times with 1 mL of PBS. After the final wash, the pelleted cells were resuspended in 500 µL of PBS containing 1 µg/mL of BOFP and incubated in the dark for 5 minutes at room temperature. The cells were then centrifuged at 15,000 × g for 1 minute, washed twice with 1 mL of PBS, and subsequently resuspended in 200 µL of PBS. […]
# [3] = system: FtsZ in S. pyogenes ATCC 19615 cells; assay: FtsZ visualization by fluorescence microscopy in live cells; assay type: cell-based, Streptococcus pyogenes; conditions: 1 µg/mL for 5 minutes
# Procedure: as §1, §2
# A. baumannii (AbFtsZ) = target: T2, A. baumannii (AbFtsZ) (Acinetobacter baumannii, UniProt V5V8B6); assay: Fluorescence anisotropy binding of BOFP to AbFtsZ; conditions: for Kd: 50 mM Tris-HCl (pH 7.6), 50 mM KCl, 0.1 µM BOFP
# T2 sequence (V5V8B6 1-391): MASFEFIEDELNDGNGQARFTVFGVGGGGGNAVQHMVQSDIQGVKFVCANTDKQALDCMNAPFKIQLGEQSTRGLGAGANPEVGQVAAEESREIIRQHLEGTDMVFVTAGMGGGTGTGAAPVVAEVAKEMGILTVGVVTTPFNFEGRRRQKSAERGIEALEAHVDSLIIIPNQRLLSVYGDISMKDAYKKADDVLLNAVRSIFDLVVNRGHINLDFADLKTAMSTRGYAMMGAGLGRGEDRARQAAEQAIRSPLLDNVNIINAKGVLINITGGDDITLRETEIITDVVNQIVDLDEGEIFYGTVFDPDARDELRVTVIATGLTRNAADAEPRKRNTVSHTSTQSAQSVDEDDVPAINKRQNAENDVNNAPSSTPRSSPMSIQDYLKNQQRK
# Procedure: Fluorescence anisotropy experiments were performed using an AVIV model ATF105 spectrofluorometer at 15, 25, or 37 °C. In these experiments, bandwidths were set to 4 nm in both the excitation and emission directions, with the excitation and emission wavelengths being set at 488 nm and 510 nm, respectively. BOFP (0.1 µM) was titrated with increasing concentrations (ranging from 0 to 12 µM) of FtsZ in 120 µL of buffer containing 50 mM Tris-HCl (pH 7.6) and 50 mM KCl. After each protein addition, the samples were equilibrated for 3 minutes, whereupon the fluorescence anisotropy was measured.
# In this equation, r0 is the anisotropy of the protein-free compound, r∞ is the anisotropy of the compound in the presence of an infinite concentration of FtsZ, [C]tot is the total concentration of the compound, and [P]tot is the total concentration of protein with each addition. These analyses yielded the equilibrium dissociation constant (Kd) for each binding reaction.
# The binding free energy (ΔG) at temperature T was derived from the corresponding Kd value determined at T using the following relationship:2 ΔG=−RTln(1/Kd)
# The binding enthalpy (ΔH) and entropy (ΔS) were derived from linear fits of the ln(1/Kd) vs. 1/T plots shown in Figs. 3f and 5e using the following relationship:3 ln(1/Kd)=−ΔH/R(1/T)+ΔS/R
# [4] = system: FtsZ in S. agalactiae ATCC 12386 cells; assay: FtsZ visualization by fluorescence microscopy in live cells; assay type: cell-based, Streptococcus agalactiae; conditions: 1 µg/mL for 5 minutes
# Procedure: as §1, §2
# [5] = system: FtsZ in S. pneumoniae ATCC 49619 cells; assay: as above; assay type: cell-based, Streptococcus pneumoniae; conditions: 1 µg/mL for 5 minutes
# Procedure: as §1, §2
# T1 sequence (P0A031 whole entry): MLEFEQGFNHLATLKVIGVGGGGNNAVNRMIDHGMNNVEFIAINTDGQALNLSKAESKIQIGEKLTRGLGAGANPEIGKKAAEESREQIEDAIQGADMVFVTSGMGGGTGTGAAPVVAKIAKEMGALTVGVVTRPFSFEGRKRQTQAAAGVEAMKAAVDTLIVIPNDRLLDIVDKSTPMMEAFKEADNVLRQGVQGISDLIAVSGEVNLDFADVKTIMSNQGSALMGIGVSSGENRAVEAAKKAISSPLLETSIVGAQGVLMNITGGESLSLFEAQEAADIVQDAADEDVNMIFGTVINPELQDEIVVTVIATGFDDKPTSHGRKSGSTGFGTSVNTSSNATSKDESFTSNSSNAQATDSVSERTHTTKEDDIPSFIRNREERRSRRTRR
smiles,measurement,setting,value
CC1=CC(C)=[N+]2C1=Cc1ccc(CCC(=O)OCC(Oc3ccc(F)c(C(N)=O)c3F)c3nc(-c4ccc(C(F)(F)F)cc4)c(Br)o3)n1[B-]2(F)F (stereo not shown) [BOFP],Fluorescence staining / FtsZ labeling in live cells,[1]; co-treated with 3.5 mg/mL pentamidine isethionate,bright fluorescence staining becomes visible both at midcell and along the cell periphery
same,Fluorescence staining / FtsZ labeling in live cells,[1]; without pentamidine isethionate,little or no FtsZ labeling
same,Fluorescence staining / FtsZ labeling in live cells,[2],bright bands of fluorescence staining are clearly visible at midcell
same,Fluorescence staining / FtsZ labeling in live cells,[3],bright bands of fluorescence staining are clearly visible at midcell
same,Kd,"A. baumannii (AbFtsZ); 15 °C, read-out: Kd - 15 °C",400 ± 30 nM
same,Kd,"A. baumannii (AbFtsZ); 25 °C, read-out: Kd - 25 °C",550 ± 20 nM
same,Kd,"A. baumannii (AbFtsZ); 37 °C, read-out: Kd - 37 °C",680 ± 40 nM
same,ΔH,A. baumannii (AbFtsZ); from linear fit of ln(1/Kd) vs. 1/T,-4.2 ± 0.6 kcal/mol
same,Fluorescence staining / FtsZ labeling in live cells,[4],bright bands of fluorescence staining are clearly visible at midcell
same,Fluorescence staining / FtsZ labeling in live cells,[5],bright bands of fluorescence staining are clearly visible at midcell

# Source: publication PMC6934700, “Structure-Guided Design of a Fluorescent Probe for the Visualization of FtsZ in Clinically Important Gram-Positive and Gram-Negative Bacterial Pathogens” (Scientific Reports, 2019)
